Results from ChEMBL document CHEMBL2074097, “Urate transport via human PAH transporter hOAT1 and its gene structure” (Kidney Int, 2003).
Values belong to the molecule of their own block, whether it stands above or below them.

How the values were obtained:
[1] = target: T1, Solute carrier family 22 member 6 (Homo sapiens, UniProt Q4U2R8); test: TP_TRANSPORTER: inhibition of Urate uptake (Urate: 300 uM, alpha-KG: 2000 uM) in OAT1-expressing S2 cells; assay type: functional, cell-based; set-up: scale not given: the % may be the effect or the level left; conditions: s2, 2000 µM
T1 sequence (Q4U2R8 whole entry): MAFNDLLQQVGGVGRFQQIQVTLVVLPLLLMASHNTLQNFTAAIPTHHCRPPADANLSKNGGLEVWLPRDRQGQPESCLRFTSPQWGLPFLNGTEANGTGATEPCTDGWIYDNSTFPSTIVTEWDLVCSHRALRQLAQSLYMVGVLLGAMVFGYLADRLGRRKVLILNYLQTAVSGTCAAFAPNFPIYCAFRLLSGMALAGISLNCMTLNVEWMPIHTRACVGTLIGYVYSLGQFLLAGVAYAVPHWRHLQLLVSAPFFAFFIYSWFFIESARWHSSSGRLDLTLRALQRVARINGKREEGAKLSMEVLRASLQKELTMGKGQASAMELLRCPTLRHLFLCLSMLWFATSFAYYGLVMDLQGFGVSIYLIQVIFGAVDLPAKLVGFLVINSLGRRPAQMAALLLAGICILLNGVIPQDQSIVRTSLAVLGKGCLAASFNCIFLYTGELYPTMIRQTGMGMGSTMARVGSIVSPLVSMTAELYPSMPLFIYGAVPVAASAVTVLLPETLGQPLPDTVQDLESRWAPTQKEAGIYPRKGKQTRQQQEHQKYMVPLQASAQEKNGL

[2] = substrate: O=c1[nH]c(=O)c2[nH]c(=O)[nH]c2[nH]1; test: TP_TRANSPORTER: uptake in OAT1-expressing S2 cells; assay type: functional, cell-based

- Activity [1]: 12.4%
Molecule: O=C(O)CCC(=O)C(=O)O [ALPHA-KETOGLUTARIC ACID]

B1: Solute carrier family 22 member 6 (Homo sapiens) (protein)
chain: T1 sequence (Q4U2R8 whole entry)
- Km [2]: 947 µM
